Experimental data reported in US20230242474A1, “LIPID COMPOUND AND THE COMPOSITION THEREOF” (GUANGZHOU RIBOBIO CO., LTD, priority 2020, published 2023).

Key:
[1] = type: physicochemical; details: Table 1; for Size (nm): lipid nanoparticle of the ionizable lipid (ionizable lipid/phospholipid/PEG lipid/structural lipid 50/10/1.5/38.5 %) with mRNA; for Encapsulated percentage (%) / PDI: lipid nanoparticle of the ionizable lipid with mRNA
[2] = test system: BALB/c mice; experiment: Transfection efficiency: in vivo bioluminescence of luciferase mRNA encapsulated by different LNP; details: for Average fluorescence intensity, Leg (intramuscular injection) / Average fluorescence intensity, Liver (tail vein injection): 10 μg/mice; for Total photons number, Leg: intramuscular injection, 1 μg/ mice
Description: All animals were kept in adaptive feeding for more than 7 days before experiments, free to uptake food and drink water during experimental period, illumination 12/12 h alternating light and dark, room temperature was 20-26° C., humidity was 40-70%.
Experimental method: female BALB/c mice, encapsulated luciferase mRNA with different LNP by four different administrations which included subcutaneous injection (under the armpit), tail vein injection, intraperitoneal injection, intramuscular injection (the tibialis anterior muscle of mouse hind leg); 3, 6, 24, 48 h after administration, applied in vivo fluorescence imaging system (brand: Bruker, model: XTREME) for bioluminescence detection, the specific steps were as follows: substrate preparation: took appropriate amount of substrate Luciferin (brand: Promega) and added saline to make a 10 mg/ml solution, avoided light, injected 100 μl solution into each mouse intraperitoneally. […] Put the anesthetized mouse into machine, set the bioluminescence setting and took the photos, captured the photograph and then adjusted the upper and lower values of photograph, then collected data on the concentrated distribution of fluorescence (e.g., fluorescence intensity, average photons number, and total photons number) and processed data. Statistical analysis: the in vivo imaging outcome were shown in the fluorescence intensity or average of total photons number of different animal in the same tested group, which were used to judge whether the fluorescence intensity or total photon number of luciferase mRNA encapsulated by different LNP were high or low.
The fluorescence intensity and total photons number reflects the transfection efficiency of LNP, the value is higher, referring to the efficiency of delivering encapsulated substance into cell by LNP is higher.

Compound	Size (nm) [1] [nm]	Encapsulated percentage (%) [1] [%]	PDI [1]	Average fluorescence intensity, Leg (intramuscular injection) ([2]; 3 h after administration)	Average fluorescence intensity, Liver (tail vein injection) ([2]; 3 h after administration)	Average fluorescence intensity, Leg (intramuscular injection) ([2]; 6 h after administration)	Average fluorescence intensity, Liver (tail vein injection) ([2]; 6 h after administration)	Average fluorescence intensity, Leg (intramuscular injection) ([2]; 24 h after administration)	Average fluorescence intensity, Liver (tail vein injection) ([2]; 24 h after administration)	Total photons number, Leg ([2]; 6 h)	Total photons number, Leg ([2]; 3 h)	Total photons number, Leg ([2]; 24 h)
CCCCCCCCCCCCCCCCN(CCO)CCCCCC(=O)OCCCCCCCCCCC [A1]	127.7	88.79	0.090	61.3	20.4	80.6	27.80	38.9	15.9	–	–	–
CCCCCCCCC(CCCCCCCC)OC(=O)CCCCCCCN(CCO)CCCCCCCC(=O)OC(CCCCCCCC)CCCCCCCC [A2, reference compound]	145.5	87.86	0.100	1146	5325.2	1208.2	5934.7	377.7	162.6	–	–	–
CCCCCCCCCCCOC(=O)CCCCCN(CCO)CCCCCC(=O)OCCCCCCCCCCC [A3, reference compound]	140.6	81.47	0.120	60.3	12.1	69.8	11.9	35.9	13.5	–	–	–
CCCCCCCCCCCOC(=O)CCCCCN(CCCO)CCCCCCCC(=O)OC(CCCCCCCC)CCCCCCCC [A4, reference compound]	131.1	79.24	0.110	1847.5	7962.6	1956.2	7745.9	1009.7	326.4	–	–	–
CCCCCCCCC(CCCCCCCC)OC(=O)CCCCCCCN(CCCO)CCCCCCCC(=O)OC(CCCCCCCC)CCCCCCCC [A5]	135.0	90.11	0.090	675.7	2231.2	1566.4	3738.2	892.2	73.5	–	–	–
CCCCCCCCCCCOC(=O)CCCCCN(CCCO)CCCCCC(=O)OCCCCCCCCCCC [A6]	171.5	87.09	0.190	60.3	11.9	40.9	9.0	19.1	12.2	–	–	–
CCCCC/C=C/C/C=C/CCCCCCCCN(CCO)CCCCCCCC(=O)OC(CCCCCCCC)CCCCCCCC [A8, reference compound]	142.2	76.10	0.120	1111	6850.3	2161.8	10174.4	1294.9	220.8	–	–	–
CCCCC/C=C/C/C=C/CCCCCCCCN(CCO)CCCCCC(=O)OCCCCCCCCCCC [A9]	129.4	93.35	0.120	461.4	198.9	432.0	252.7	178.3	14.6	–	–	–
CCCCC/C=C/C/C=C/CCCCCCCCN(CCO)CCCCCCCC(=O)OC(COCCCCCC)COCCCCCC [A10]	121.6	82.65	0.104	–	–	–	–	–	–	3.17E+09	–	–
CCCCCCCCCCCOC(=O)CCCCCN(CCO)CCCCCCCC(=O)OC(COCCCCCC)COCCCCCC [A11]	–	–	–	–	–	–	–	–	–	1.33E+09	–	–
CCCCC/C=C/C/C=C/CCCCCCCCN(CCCO)CCCCCC(=O)OCCCCCCCCCCC [A12]	119.3	86.53	0.083	–	–	–	–	–	–	6.91E+08	–	–
CCCCCCCCC(CCCCCCCC)OC(=O)CCCCCCCN(CCO)CCCCCCCC(=O)OC(COCCCCCC)COCCCCCC [A13]	96.87	95.51	0.146	–	–	–	–	–	–	3.66E+09	–	–
CCCCC/C=C/C/C=C/CCCCCCCCN(CCCO)CCCCCCCC(=O)OC(COCCCCCC)COCCCCCC [A15]	–	–	–	–	–	–	–	–	–	8.78E+08	–	–
CCCCCCCCC(CCCCCCCC)OC(=O)CCCCCCCN(CCCO)CCCCCCCC(=O)OC(COCCCCCC)COCCCCCC [A17]	109.5	92.99	0.1037	–	–	–	–	–	–	–	–	–
CCCCCCOCC(COCCCCCC)OC(=O)CCCCCCCN(CCCO)CCCCCCCC(=O)OC(COCCCCCC)COCCCCCC [A19]	110.1	88.00	0.0923	–	–	–	–	–	–	4.77E+09	3.69E+09	7.33E+08
CCCCCCOCC(COCCCCCC)OC(=O)CCCCCCCN(CCCO)CCCCCCCCCCCC(=O)OC(COCC)COCC [A26]	120.3	83.56	0.064	–	–	–	–	–	–	–	–	–
CCCCCCOCC(COCCCCCC)OC(=O)CCCCCCCN(CCCCCCCC(=O)OC(COCCCCCC)COCCCCCC)CCCNc1c(NCCCNc2c(NC)c(=O)c2=O)c(=O)c1=O [A29]	126.4	89.98	0.05	–	–	–	–	–	–	–	–	–
CCCCCCOCC(COCCCCCC)OC(=O)CCCCCCCN(CCCCCCCC(=O)OC(COCCCCCC)COCCCCCC)CCCNc1c(NCCCNc2c(NCCCN(CCCCCCCC(=O)OC(COCCCCCC)COCCCCCC)CCCCCCCC(=O)OC(COCCCCCC)COCCCCCC)c(=O)c2=O)c(=O)c1=O [A30]	110.1	98.14	0.28	–	–	–	–	–	–	–	–	–
CCCCCCCCOCC(COCCCCCCCC)OC(=O)CCCCCCCN(C)CCCNc1c(NCCCN(C)CCCCCCCC(=O)OC(COCCCCCCCC)COCCCCCCCC)c(=O)c1=O [A31]	–	–	–	–	–	–	–	–	–	2.65E+08	1.58E+08	8.43E+07
CCCCCCOCC(COCCCCCC)OC(=O)CCCCCCCN(C)CCCNc1c(NCCCNc2c(NCCCN(C)CCCCCCCC(=O)OC(COCCCCCC)COCCCCCC)c(=O)c2=O)c(=O)c1=O [A32]	128.7	94.19	0.07	–	–	–	–	–	–	–	–	–
